In US11472769B2, “SSAO inhibitors and use thereof” (Eccogene (Shanghai) Co., Ltd., priority 2019, dated 2022) one finds IC50 data, which are given here for 24 compounds.

What is called IC50 is the concentration needed to halve the response being measured.

Molecules are shown by their SMILES.

For the assay, the target named is recombinant hSSAO (Homo sapiens (Human), UniProt Q16853). Description: SSAO Activity Assay (MAO-Glo assay kit). Format: biochemical. The note with it: 40 μM substrate, 30 mins pre-incubation. The procedure: The biological activities of the compounds of the present application can be assessed with methods and assays known in the art. For example, the potency of the compounds of the present application can be evaluated with an SSAO Activity Assay. Briefly, compounds of the present application can be applied to recombinant hSSAO, hMAO-A, and hMAO-B isoforms and the amine oxidase activity of the enzymes are measured after the addition and subsequent oxidation of the luminogenic substrate (e.g., with the MAO-Glo assay kit from Promega). The IC50 can be calculated, for example, by fitting the dose response curve using a 4-parameter non-linear regression routine.
Sequence of recombinant hSSAO (Q16853 whole entry, canonical isoform): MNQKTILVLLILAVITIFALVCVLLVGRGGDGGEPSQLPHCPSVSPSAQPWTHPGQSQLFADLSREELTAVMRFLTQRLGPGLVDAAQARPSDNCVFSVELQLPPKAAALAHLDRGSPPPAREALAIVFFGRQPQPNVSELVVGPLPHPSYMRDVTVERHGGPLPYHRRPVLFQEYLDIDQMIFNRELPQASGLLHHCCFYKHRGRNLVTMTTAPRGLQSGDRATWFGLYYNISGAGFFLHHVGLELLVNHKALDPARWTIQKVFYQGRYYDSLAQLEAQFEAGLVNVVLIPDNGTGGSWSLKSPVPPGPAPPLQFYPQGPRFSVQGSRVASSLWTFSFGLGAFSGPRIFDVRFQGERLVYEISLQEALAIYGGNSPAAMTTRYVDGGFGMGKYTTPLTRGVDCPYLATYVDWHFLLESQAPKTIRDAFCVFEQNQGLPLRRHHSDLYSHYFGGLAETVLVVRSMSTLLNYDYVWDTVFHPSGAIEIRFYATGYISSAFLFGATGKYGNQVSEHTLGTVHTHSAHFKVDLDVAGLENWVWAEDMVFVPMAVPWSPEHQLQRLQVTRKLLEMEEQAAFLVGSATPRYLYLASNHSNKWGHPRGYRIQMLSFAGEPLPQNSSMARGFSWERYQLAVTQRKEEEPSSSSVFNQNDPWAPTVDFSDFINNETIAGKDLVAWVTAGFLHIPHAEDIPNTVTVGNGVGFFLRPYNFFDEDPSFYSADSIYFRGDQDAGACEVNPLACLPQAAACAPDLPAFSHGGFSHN
Amine oxidase activity of recombinant hSSAO, hMAO-A, and hMAO-B isoforms are measured using the MAO-Glo assay kit (Promega, V1402). Ten nL test compounds (with DMSO as vehicle, 0.1% v/v for hSSAO, hMAO-A and hMAO-B) were added into assay plates by Echo, and pre-incubated with 5 μL of enzyme for 30 mins at room temperature before the addition of 5 μL of luminogenic substrate. The substrate concentration is 40 μM for human recombinant SSAO, 40 μM for human recombinant MAO-A, and 4 μM for human recombinant MAO-B. The hSSAO and hMAO-A assays were conducted in the MAO-A reaction buffer in the kit, and the MAO-B assay was conducted in the MAO-B reaction buffer. Oxidation of the substrate was conducted for 1 hr, before the addition of detecting reagent according the manufacture's protocol. The IC50 value of the tested compounds was calculated by fitting the dose response curve using a 4-parameter non-linear regression routine.
With `CC1(C)COC(CS(=O)(=O)c2ccc(OC/C(=C/F)CN)cc2)CO1` (stereo not drawn) [compound 2, (E)-2-((4-(((5,5-dimethyl-1,4-dioxan-2-yl)methyl)sulfonyl)phenoxy)methyl)-3-fluoroprop-2-en-1-amine], the IC50 was 20 to 100 nM.

Turning to `NC/C(=C\F)COc1ccc(S(=O)(=O)CC2CCOCC2)c(F)c1` [compound 6, (E)-3-fluoro-2-((3-fluoro-4-(((tetrahydro-2H-pyran-4-yl)methyl)sulfonyl)phenoxy)methyl) prop-2-en-1-amine], the IC50 is 20 to 100 nM.

Turning to `NC/C(=C\F)COc1ccc(S(=O)(=O)CC2(O)CCOCC2)cc1` [compound 10, (E)-4-(((4-((2-(aminomethyl)-3-fluoroallyl)oxy)phenyl)sulfonyl)methyl)tetrahydro-2H-pyran-4-ol], the IC50 is 20 to 100 nM.

On to `COC1(CS(=O)(=O)c2ccc(OC/C(=C/F)CN)cc2)CCOCC1` [compound 11, (E)-3-fluoro-2-((4-(((4-methoxytetrahydro-2H-pyran-4-yl)methyl)sulfonyl)phenoxy)methyl) prop-2-en-1-amine], for which the IC50 lay within 20 to 100 nM.

Take `NC/C(=C\F)COc1ccc(S(=O)(=O)CC23CCC(C4(NC(=O)C5CC5)CC4)(CC2)CC3)cc1` [compound 16, (E)-N-(1-(4-(((4-((2-(aminomethyl)-3-fluoroallyl)oxy)phenyl)sulfonyl)methyl)bicyclo[2.2.2]octan-1-yl)cyclopropyl) cyclopropanecarboxamide]: the IC50 lay in the range of 20 to 100 nM.

As to `COCC(COC)CS(=O)(=O)c1ccc(OC/C(=C/F)CN)cc1` [compound 25, (E)-3-fluoro-2-((4-((3-methoxy-2-(methoxymethyl)propyl)sulfonyl)phenoxy)methyl)prop-2-en-1-amine], the IC50 is 20 to 100 nM.

In the case of `NC/C(=C\F)COc1ccc(S(=O)(=O)COC2CCOCC2)cc1` [compound 26, (E)-3-fluoro-2-((4-((((tetrahydro-2H-pyran-4-yl)oxy)methyl)sulfonyl)phenoxy)methyl)prop-2-en-1-amine], the IC50 fell in the range of 20 to 100 nM.

With `NC/C(=C\F)COc1ccc(S(=O)(=O)COC2CCN(C(=O)C3CCCC3)CC2)cc1` [compound 27, (E)-(4-(((4-((2-(aminomethyl)-3-fluoroallyl)oxy)phenyl)sulfonyl)methoxy)piperidin-1-yl)(cyclopentyl)methanone], the IC50 lay within 20 to 100 nM.

Take `COCCOCS(=O)(=O)c1ccc(OC/C(=C/F)CN)cc1` [compound 29, (E)-3-fluoro-2-((4-(((2-methoxyethoxy)methyl)sulfonyl)phenoxy)methyl)prop-2-en-1-amine]: the half-inhibitory concentration (IC50) lay in the range of 20 to 100 nM.

`CC1(COCS(=O)(=O)c2ccc(OC/C(=C/F)CN)cc2)CCOCC1` [compound 31, (E)-3-fluoro-2-((4-((((4-methyltetrahydro-2H-pyran-4-yl)methoxy)methyl)sulfonyl)phenoxy)methyl)prop-2-en-1-amine]: the IC50 lay within 20 to 100 nM.

As to `N#CC1(COCS(=O)(=O)c2ccc(OC/C(=C/F)CN)cc2)CCOCC1` [compound 32, (E)-4-((((4-((2-(aminomethyl)-3-fluoroallyl)oxy)phenyl)sulfonyl)methoxy)methyl)tetrahydro-2H-pyran-4-carbonitrile], the IC50 is 20 to 100 nM.

On to `CC(C)C(=O)N1CCC(C)(COCS(=O)(=O)c2ccc(OC/C(=C/F)CN)cc2)CC1` [compound 33, (E)-1-(4-((((4-((2-(aminomethyl)-3-fluoroallyl)oxy)phenyl)sulfonyl)methoxy)methyl)-4-methylpiperidin-1-yl)-2-methylpropan-1-one], for which the IC50 was in the range of 20 to 100 nM.

With `CC1(COCS(=O)(=O)c2ccc(OC/C(=C/F)CN)cc2)CCN(C(=O)C(C)(C)C)CC1` [compound 34, (E)-1-(4-((((4-((2-(aminomethyl)-3-fluoroallyl)oxy)phenyl)sulfonyl)methoxy)methyl)-4-methylpiperidin-1-yl)-2,2-dimethylpropan-1-one], the IC50 lay in the range of 20 to 100 nM.

Regarding `COCC(COC)OCS(=O)(=O)c1ccc(OC/C(=C/F)CN)cc1` [compound 36, (E)-2-((4-((((1,3-dimethoxypropan-2-yl)oxy)methyl)sulfonyl)phenoxy)methyl)-3-fluoroprop-2-en-1-amine], the IC50 fell in the range of 20 to 100 nM.

With `CC(C)(C)C(=O)N1CCC(CS(=O)(=O)c2ccc(OC/C(=C/F)CN)cc2)CC1` [compound 41, (E)-1-(4-(((4-((2-(aminomethyl)-3-fluoroallyl)oxy)phenyl)sulfonyl)methyl)piperidin-1-yl)-2,2-dimethylpropan-1-one], the IC50 was in the range of 20 to 100 nM.

In the case of `CC(C)C(=O)Nc1ccc(CS(=O)(=O)c2ccc(OC/C(=C/F)CN)cc2)cc1` [compound 45, (E)-N-(4-(((4-((2-(aminomethyl)-3-fluoroallyl)oxy)phenyl)sulfonyl)methyl)phenyl)isobutyramide], the IC50 lay within 20 to 100 nM.

As for `CC(C)C(=O)N1CC(CS(=O)(=O)c2ccc(OC/C(=C/F)CN)cc2)C1` [compound 52, (E)-1-(3-(((4-((2-(aminomethyl)-3-fluoroallyl)oxy)phenyl)sulfonyl)methyl)azetidin-1-yl)-2-methylpropan-1-one], the IC50 fell in the range of 20 to 100 nM.

On to `CC(C)C(=O)N1CCC(C)(CS(=O)(=O)c2ccc(OC/C(=C/F)CN)cc2)CC1` [compound 53, (E)-1-(4-(((4-((2-(aminomethyl)-3-fluoroallyl)oxy)phenyl)sulfonyl)methyl)-4-methylpiperidin-1-yl)-2-methylpropan-1-one], for which the IC50 was in the range of 20 to 100 nM.

In the case of `NC/C(=C\F)COc1ccc(S(=O)(=O)CC2CCN(C(=O)C3CC3)CC2)c(Cl)c1` [compound 60, (E)-(4-(((4-((2-(aminomethyl)-3-fluoroallyl)oxy)-2-chlorophenyl)sulfonyl)methyl)piperidin-1-yl)(cyclopropyl)methanone], the IC50 was 20 to 100 nM.

Turning to `NC/C(=C\F)COc1ccc(S(=O)(=O)CC23CCC(C(=O)N4CCC(F)(F)CC4)(CC2)CC3)cc1` [compound 63, (E)-(4-(((4-((2-(aminomethyl)-3-fluoroallyl)oxy)phenyl)sulfonyl)methyl)bicyclo[2.2.2]octan-1-yl)(4,4-difluoropiperidin-1-yl)methanone], the IC50 fell in the range of 20 to 100 nM.

On to `CN(C(=O)C1CC1)C12CCC(CS(=O)(=O)c3ccc(OC/C(=C/F)CN)cc3)(CC1)CC2` [compound 78, (E)-N-(4-(((4-((2-(aminomethyl)-3-fluoroallyl)oxy)phenyl)sulfonyl)methyl)bicyclo[2.2.2]octan-1-yl)-N-methylcyclopropanecarboxamide], for which the IC50 lay within 20 to 100 nM.

Turning to `CC(C)N(C)C(=O)C(C)(C)CS(=O)(=O)c1ccc(OC/C(=C/F)CN)cc1` [compound 95, (E)-3-((4-((2-(aminomethyl)-3-fluoroallyl)oxy)phenyl)sulfonyl)-N-isopropyl-N,2,2-trimethylpropanamide], the IC50 lay in the range of 100 to 500 nM.

For `CCN(CC(C)CS(=O)(=O)c1ccc(OC/C(=C/F)CN)cc1)C(=O)C(C)C` (stereo not drawn) [compound 97, (E)-N-(3-((4-((2-(aminomethyl)-3-fluoroallyl)oxy)phenyl)sulfonyl)-2-methylpropyl)-N-ethylisobutyramide], the IC50 was in the range of 20 to 100 nM.

For `CC(C)n1ccc(CS(=O)(=O)c2ccc(OC/C(=C/F)CN)cc2)cc1=O` [compound 101, (E)-4-(((4-((2-(aminomethyl)-3-fluoroallyl)oxy)phenyl)sulfonyl)methyl)-1-isopropylpyridin-2(1H)-one], the IC50 lay within 20 to 100 nM.
